Consider 2 compounds from patent publication US20180125774A1, “Method and Composition for Visible Light Dryable Nail Coatings” (priority 2016, published 2018).

Type in all cases: physicochemical
A short description of data set [1]: Stability (thermal, light, oxidation in air) as described. The source says:
Any one of several photo-initiators is used in the present invention, wherein the photo-initiators can be either component (A): visible light photo-initiator A or component (B): visible light photo-initiator B. Visible light photo-initiator A is, but not limited to, Bis (η5-2,4-cylcopentadian-1-yl)-bis (2,6-di-fluoro-3-(1H-pyrrol-1-yl) phenyl) titanium. […] More specifically, visible light photo-initiator A is particularly suitable for the curing of photopolymers for imaging or information storage applications where extremely high photosensitivity is required.
It is worth to mention that visible light photo-initiator A is sensitive to visible light and any exposure to sunlight must be avoided. And, the visible light photo-initiator A must be stored in low temperature, which is below 25° C., and dry environment. […] Therefore, opened drums are required to close after use to protect the product against light.
Accordingly, visible light photo-initiator B is, but not limited to, 4,4′-Bis (diethylamino) benzophenone. Visible light photo-initiator B is both an aromatic ketone and a tertiary amine, and acts both as a photosensitizer and an amine synergist.

Data set [2] is described as follows: Solubility of visible light photo-initiator A in solvents. The conditions noted are these: 25° C. The source says: The following table 2 lists the solubility of the visible light photo-initiator A of the first preferred embodiment of the visible light dryable nail coating according to this present invention.
The nature of data set [3]: Specification solubility test in acetone. The source says:
The following table 4 lists the specification of the visible light photo-initiator B of the first preferred embodiment of the visible light dryable nail coating according to this present invention.

Data set [4] can be described thus: Solubility of visible light photo-initiator B in solvents. The conditions noted are these: 20° C. The source says:
The following table 5 lists the solubility of the visible light photo-initiator B of the first preferred embodiment of the visible light dryable nail coating according to this present invention.

As for `Fc1ccc(-n2cccc2)c(F)[c]1[Ti+2][c]1c(F)ccc(-n2cccc2)c1F.c1cc[cH-]c1.c1cc[cH-]c1` [visible light photo-initiator A, Bis (η5-2,4-cylcopentadian-1-yl)-bis (2,6-di-fluoro-3-(1H-pyrrol-1-yl)phenyl) titanium], the Thermal stability entry in data set [1] is given as “good thermal stability”. Besides, the Light sensitivity result in data set [1] (dissolved in a solvent or a formulation, daylight and standard fluorescence bulbs) is “extremely sensitive to daylight and light from standard fluorescence bulbs”. Also, the Solubility is 30 g in 100 ml solvent in data set [2] (Acetone); 2 g in 100 ml solvent in data set [2] (Butyl Acetate); 10 g in 100 ml solvent in data set [2] (HDDA); 30 g in 100 ml solvent in data set [2] (MEK); 10 g in 100 ml solvent in data set [2] (Toluene); under 0.5 g in 100 ml solvent in data set [2] (Water).
On to `CCN(CC)c1ccc(C(=O)c2ccc(N(CC)CC)cc2)cc1` [visible light photo-initiator B, 4,4′-Bis (diethylamino) benzophenone], for which the Resistance to oxidation result in data set [1] (exposure in air, versus most commercially available EMK) is on record as “more resistant to oxidation by exposure in air than most commercially available EMK”. Also, the “Solubility (3 g/10 mL Acetone)” value in data set [3] is “Clear solution”. Besides, the Solubility is recorded as 30 % w/w in data set [4] (Acetone); 30 % w/w in data set [4] (Butyl Acetate); 24 % w/w in data set [4] (Ethyl acetate); 7.0 % w/w in data set [4] (Methanol); 25 % w/w in data set [4] (Toluene); under 0.01 % w/w in data set [4] (Water).
